Where a name gives a salt, the structure may show the parent alone.
target: T1, human EP1 receptor (Homo sapiens, UniProt P34995); experiment: human EP1 calcium mobilisation assay; type: cell-based; settings: negative logarithm10 of the antagonist dissociation constant; CHO-K1 cells, PGE2; free bases or sodium salts; averages of a number of experiments; read-out: functional pKi value (converted)
T1 construct: expressed in transfected cells; host or cells: CHO-K1
T1 sequence (P34995 1-402): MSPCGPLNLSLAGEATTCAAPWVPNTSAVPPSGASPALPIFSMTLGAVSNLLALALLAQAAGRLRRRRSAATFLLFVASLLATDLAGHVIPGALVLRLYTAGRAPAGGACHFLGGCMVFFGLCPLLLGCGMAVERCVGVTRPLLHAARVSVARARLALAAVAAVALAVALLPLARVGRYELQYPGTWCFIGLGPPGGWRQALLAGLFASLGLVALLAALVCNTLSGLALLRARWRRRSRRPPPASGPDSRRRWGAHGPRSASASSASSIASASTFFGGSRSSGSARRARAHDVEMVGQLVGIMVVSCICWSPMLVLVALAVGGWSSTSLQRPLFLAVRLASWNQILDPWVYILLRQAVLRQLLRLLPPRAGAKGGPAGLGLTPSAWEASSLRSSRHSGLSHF
Description: Briefly, the antagonist properties of compounds are assessed by their ability to inhibit the mobilisation of intracellular calcium ([Ca^2+]i) in response to activation of EP1 or EP3 receptors by the natural agonist hormone prostaglandin E2 (PGE2). Increasing concentrations of antagonist reduce the amount of calcium that a given concentration of PGE2 can mobilise. The net effect is to displace the PGE2 concentration-effect curve to higher concentrations of PGE2. The amount of calcium produced is assessed using a calcium-sensitive fluorescent dye such as Fluo-4, AM and a suitable instrument such as a Fluorimetric Imaging Plate Reader (FLIPR). Increasing amounts of [Ca^2+]i produced by receptor activation increase the amount of fluorescence produced by the dye and give rise to an increasing signal. The signal may be detected using the FLIPR instrument and the data generated may be analysed with suitable curve-fitting software.
The human EP1 or EP3 calcium mobilisation assay (hereafter referred to as ‘the calcium assay’) utilises Chinese hamster ovary-K1 (CHO-K1) cells into which a stable (pCIN; BioTechniques 20 (1996): 102-110) vector containing either EP1 or EP3 cDNA has previously been transfected. Cells are cultured in suitable flasks containing culture medium such as DMEM:F-12 supplemented with 10% v/v foetal calf serum, 2 mM L-glutamine, 0.25 mg/ml geneticin, 100 μM flurbiprofen and 10 μg/ml puromycin.
For assay, cells are harvested using a proprietary reagent that dislodges cells such as Versene. Cells are re-suspended in a suitable quantity of fresh culture media for introduction into a 384-well plate. Following incubation for 24 hours at 37° C. the culture media is replaced with a medium containing Fluo-4 and the detergent pluronic acid, and a further incubation takes place. Concentrations of compounds are then added to the plate in order to construct concentration-effect curves. This may be performed on the FLIPR in order to assess the agonist properties of the compounds. Concentrations of PGE2 are then added to the plate in order to assess the antagonist properties of the compounds.
The data so generated may be analysed by means of a computerised curve-fitting routine. The concentration of compound that elicits a half-maximal inhibition of the calcium mobilisation induced by PGE2 (plC50) may then be estimated.

SMILES	Ki [nM]
Cc1cc(OC(=O)NCc2cccc(NC(=O)OC(C)(C)C)c2)nn1Cc1cc(Cl)ccc1OCc1ccccc1 [Example 60, 1-({5-Chloro-2-[(phenylmethyl)oxy]phenyl}methyl)-5-methyl-1H-pyrazol-3-yl {[3-({[(1,1-dimethylethyl)oxy]carbonyl}amino)phenyl]methyl}carbamate]	> 1000
Cc1cc(-c2nc3nccnc3[nH]2)nn1Cc1cc(Cl)ccc1OCc1ccccc1 [Example 368, 2-[1-({5-Chloro-2-[(phenylmethyl)oxy]phenyl}methyl)-5-methyl-1H-pyrazol-3-yl]-1H-imidazo[4,5-b]pyrazine hydrochloride]	> 1000
Cc1cc(NC(=O)c2ccc(CNCC(C)C)c(F)c2)nn1Cc1cc(Cl)ccc1OCC(C)C [Example 438, N-[1-({5-chloro-2-[(2-methylpropyl)oxy]phenyl}methyl)-5-methyl-1H-pyrazol-3-yl]-3-fluoro-4-{[(2-methylpropyl)amino]methyl}benzamide hydrochloride]	> 1000
Cc1cc(C(=O)NCc2ccccn2)nn1Cc1cc(Cl)ccc1OCc1ccc(Cl)cc1F [Example 340, 1-[(5-Chloro-2-{[(4-chloro-2-fluorophenyl)methyl]oxy}phe-nyl)methyl]-5-methyl-N-(2-pyridinylmethyl)-1H-pyrazole-3-carboxamide]	> 1000
Cc1cc(C(=O)Nc2ccccc2Cl)nn1Cc1cc(Cl)ccc1OCc1ccccc1 [Example 300, N-(2-Chlorophenyl)-1-({5-chloro-2-[(phenylmethyl)oxy]phenyl}methyl)-5-methyl-1H-pyrazole-3-carboxamide]	> 1000
Cc1cc(-c2cnc(-c3ccncc3)[nH]2)nn1Cc1cc(Cl)ccc1OCc1ccccc1 [Example 483, 4-{4-[1-({5-Chloro-2-[(phenylmethyl)oxy]phenyl}methyl)-5-methyl-1H-pyrazol-3-yl]-1H-imidazol-2-yl}pyridine hydrochloride]	> 1000
Cc1cc(NC(=O)c2c(F)cc(CNC(C)C)cc2F)nn1Cc1cc(Cl)ccc1OCC(C)C [Example 440, N-[1-({5-chloro-2-[(2-methylpropyl)oxy]phenyl}methyl)-5-methyl-1H-pyrazol-3-yl]-2,6-difluoro-4-{[(1-methylethyl)amino]methyl}benzamide hydrochloride]	> 1000
Cc1cc(NC(=O)c2ccccn2)nn1Cc1cc(Cl)ccc1OCc1ccccc1 [Example 139, N-[1-({5-Chloro-2-[(phenylmethyl)oxy]phenyl}methyl)-5-methyl-1H-pyrazol-3-yl]-2-pyridinecarboxamide]	> 1000
Cc1cc(C(=O)Nc2ccccc2)nn1Cc1cc(Cl)ccc1OCc1ccccc1 [Example 291, 1-({5-Chloro-2-[(phenylmethyl)oxy]phenyl}methyl)-5-methyl-N-phenyl-1H-pyrazol-3-carboxamide]	> 1000
Cc1cc(NC(=O)c2ccc3c(c2)CCNCC3)nn1Cc1cc(Cl)ccc1OCC(C)C [Example 98, N-[1-({5-Chloro-2-[(2-methylpropyl)oxy]phenyl}methyl)-5-methyl-1H-pyrazol-3-yl]-2,3,4,5-tetrahydro-1H-3-benzazepine-7-carboxamide hydrochloride]	> 1000
Cc1cc(NC(=O)c2ccc(CN3CCCCC3)c(F)c2)nn1Cc1cc(Cl)ccc1OCC(C)C [Example 436, N-[1-({5-chloro-2-[(2-methylpropyl)oxy]phenyl}methyl)-5-methyl-1H-pyrazol-3-yl]-3-fluoro-4-(1-piperidinylmethyl)benzamide hydrochloride]	> 1000
Cc1cc(NC(=O)c2ccc(C#N)cc2)nn1Cc1cc(Cl)ccc1OCc1ccccc1 [Example 142, N-[1-({5-Chloro-2-[(phenylmethyl)oxy]phenyl}methyl)-5-methyl-1H-pyrazol-3-yl]-4-cyanobenzamide]	> 1000
CC(=O)Nc1cc(C)n(Cc2cc(Cl)ccc2OCC(C)C)n1 [Example 103, N-[1-({5-Chloro-2-[(2-methylpropyl)oxy]phenyl}methyl)-5-methyl-1H-pyrazol-3-yl]acetamide]	> 1000
Cc1cc(OC(=O)NCc2cccc(CNC(=O)OC(C)(C)C)c2)nn1Cc1cc(Cl)ccc1OCc1ccccc1 [Example 61, 1-({5-Chloro-2-[(phenylmethyl)oxy]phenyl}methyl)-5-methyl-1H-pyrazol-3-yl 1,1-dimethylethyl (benzene-1,3-diyldimethanediyl)biscarbamate]	> 1000
Cc1cc(OC(=O)NC2CCCCC2)nn1Cc1cc(Cl)ccc1OCc1ccccc1 [Example 43, 1-({5-Chloro-2-[(phenylmethyl)oxy]phenyl}methyl)-5-methyl-1H-pyrazol-3-yl cyclohexylcarbamate]	> 1000
Cc1cc(OC(=O)NCc2ccc(NC(=O)OC(C)(C)C)cc2)nn1Cc1cc(Cl)ccc1OCc1ccccc1 [Example 56, 1-({5-Chloro-2-[(phenylmethyl)oxy]phenyl}methyl)-5-methyl-1H-pyrazol-3-yl {[4-({[(1,1-dimethylethyl)oxy]carbonyl}amino)phenyl]methyl}carbamate]	> 1000
Cc1cc(N2CCN(CC3CCCCC3)CC2=O)nn1Cc1cc(Cl)ccc1OCc1ccccc1 [Example 249, 1-[1-({5-Chloro-2-[(phenylmethyl)oxy]phenyl}methyl)-5-methyl-1H-pyrazol-3-yl]-4-(cyclohexylmethyl)-2-piperazinone hydrochloride]	> 1000
Cc1cc(C(=O)NCc2ccccc2)nn1Cc1cc(Cl)ccc1OCc1ccccc1 [Example 292, 1-({5-Chloro-2-[(phenylmethyl)oxy]phenyl}methyl)-5-methyl-N-(phenylmethyl)-1H-pyrazol-3-carboxamide]	> 1000

Results, then the compound that gave them:

Ki [nM]	SMILES
> 1000	Cc1cc(NC(=O)Cc2ccccc2)nn1Cc1cc(Cl)ccc1OCc1ccc(F)cc1Cl [Example 124, N-{1-[(5-Chloro-2-{[(2-chloro-4-fluorophenyl)methyl]oxy}phenyl)methyl]-5-methyl-1H-pyrazol-3-yl}-2-phenylacetamide]
> 1000	Cc1cc(NC(=O)Cc2ccccc2)nn1Cc1cc(Cl)ccc1OCc1ccccc1Cl [Example 129, N-{1-[(5-Chloro-2-{[(2-chlorophenyl)methyl]oxy}phenyl)methyl]-5-methyl-1H-pyrazol-3-yl}-2-phenylacetamide]
> 1000	Cc1cc(NC(=O)Cc2cccnc2)nn1Cc1cc(Cl)ccc1OCc1ccccc1 [Example 148, N-[1-({5-Chloro-2-[(phenylmethyl)oxy]phenyl}methyl)-5-methyl-1H-pyrazol-3-yl]-2-(3-pyridinyl)-acetamide]
> 1000	Cc1cc(NC(=O)Cc2ccccc2)nn1Cc1cc(Cl)ccc1OCc1ccccc1F [Example 120, N-{1-[(5-Chloro-2-{[(2-fluorophenyl)methyl]oxy}phenyl)methyl]-5-methyl-1H-pyrazol-3-yl}-2-phenylacetamide]
> 1000	Cc1cc(NC(=O)c2cnccn2)nn1Cc1cc(Cl)ccc1OCc1ccccc1 [Example 144, N-[1-({5-Chloro-2-[(phenylmethyl)oxy]phenyl}methyl)-5-methyl-1H-pyrazol-3-yl]-2-pyrazinecarboxamide]
> 1000	Cc1cc(NC(=O)Cc2ccccc2)nn1Cc1cc(Cl)ccc1OCc1ccc(Cl)cc1Cl [Example 125, N-{1-[(5-Chloro-2-{[(2,4-dichlorophenyl)methyl]oxy}phenyl)methyl]-5-methyl-1H-pyrazol-3-yl}-2-phenylacetamide]
> 1000	Cc1cc(NC(=O)Cc2ccccc2)nn1Cc1cc(Cl)ccc1OCc1c(F)cc(F)cc1F [Example 127, N-{1-[(5-Chloro-2-{[(2,4,6-trifluorophenyl)methyl]oxy}phenyl)methyl]-5-methyl-1H-pyrazol-3-yl}-2-phenylacetamide]
> 1000	Cc1cc(NC(=O)Cc2ccncc2)nn1Cc1cc(Cl)ccc1OCc1ccccc1 [Example 149, N-[1-({5-Chloro-2-[(phenylmethyl)oxy]phenyl}methyl)-5-methyl-1H-pyrazol-3-yl]-2-(4-pyridinyl)-acetamide]
